Reference: patent US10710979B2, “EGFR kinase inhibitor and preparation method and use thereof” (ZHEJIANG BOSSAN PHARMACEUTICAL CO. LTD., priority 2015, dated 2020)

What was measured:
Assay type in all cases: cell-based
[1] = system: human lung cancer cells H1975; test: Effect of compounds on proliferation of tumor cells (MTT), H1975; conditions: Homo sapiens, NCI-H1975; H1975 cells, 72 hours, MTT
Method: (§1) Human lung cancer cells H1975, H522, human hepatoma cell HepG2, human melanoma cell A375, human epidermal cancer cell A431, and human colon cancer cells COLO205 were cultivated. The cells were collected when they have grown to logarithmic growth phase, and centrifuged at 1000 rpm for 5 min, from which the supernatant was discarded, and the rest was suspended with appropriate amount of medium, and the concentration of cells was adjusted to 2.5-5.5×10^4/ml (once it was 3.0-5.5×10^4/ml). The cell suspension was inoculated into a 96-well cell culture plate with 100 μl per well, and placed in a cell incubator (37° C., 5% CO2) for 24 hours, and then 100 μl of the drug diluted in the cell culture medium was added to each well of the drug group. Three duplicate wells were set for each drug, and the negative control group was medium containing 0.5% DMSO. After being incubated for 72 hours in the incubator, 20 μl of MTT (5 mg/ml) was added to each well, which was placed under 37° C. for 3 hours. 150 μl of DMSO was added to each well and shaken at 37° C. for 5 mins, and absorbance (OD) was determined at 492 nm. The Prism Graphpad statistical software was used to calculate IC50 values.

[2] = system: human lung cancer cells H522; test: Effect of compounds on proliferation of tumor cells (MTT), H522; conditions: NCI-H522, 72 hours
Method: as §1

[3] = system: human hepatoma cell HepG2; test: Effect of compounds on proliferation of tumor cells (MTT), HepG2; conditions: 72 hours
Method: as §1

[4] = system: human colon cancer cells COLO205; test: Effect of compounds on proliferation of tumor cells (MTT), COLO205; conditions: COLO 205, 72 hours
Method: as §1

human melanoma cell A375 = test: Effect of compounds on proliferation of tumor cells (MTT), A375; conditions: A-375, 72 hours
Method: as §1

[5] = system: human epidermal cancer cell A431; test: Effect of compounds on proliferation of tumor cells (MTT), A431; conditions: A-431, 72 hours
Method: as §1

| IC50 [1] [nM] | IC50 [2] [nM] | IC50 [3] [µM] | IC50 [4] [µM] | IC50 (human melanoma cell A375) [µM] | IC50 [5] [µM] | SMILES |
| --- | --- | --- | --- | --- | --- | --- |
| 46 | 3000 | 13 | 8.71 | 12.2 | 3.46 | C=CC(=O)Nc1cccc(Nc2nc(Nc3ccc(NC4CCN(C)C4)nc3OC)ncc2C(F)(F)F)c1 (stereo not shown) [ES-146] |
| 214 |  | 1.95 |  | 15 | 7.08 | C=CC(=O)Nc1cccc(Nc2nc(Nc3cnc(N4CCN(C(=O)OC(C)(C)C)CC4)cc3OC)ncc2C(F)(F)F)c1 [ES-073] |
| 430 | 3390 | 13.2 | 5.66 | 12.5 | 5.68 | C=CC(=O)Nc1cccc(Nc2nc(Nc3ccc(N4CCN(S(=O)(=O)NC)CC4)nc3OC)ncc2C(F)(F)F)c1 [ES-133] |
| 86.8 | 2750 | 6.24 | 4.14 | 7.86 | 2.32 | C=CC(=O)Nc1cccc(Nc2nc(Nc3cnc(N4CCN(C)CC4)nc3OC)ncc2C(F)(F)F)c1 [ES-161] |
| 55.2 | 2340 | 4.05 | 4.25 | 4.5 | 0.72 | C=CC(=O)Nc1cccc(Nc2nc(Nc3ccc(N4CCN(C(=O)C(C)C)CC4)nc3OC)ncc2C(F)(F)F)c1 [ES-141] |
| 179 |  | 6.88 |  | 10.3 | 3.5 | C=CC(=O)Nc1cccc(Nc2nc(Nc3cnc(N4CCN(C(C)=O)CC4)cc3OC)ncc2C(F)(F)F)c1 [ES-074] |
| 690 | 3560 | 5.79 | 5.08 | > 100 | 7.21 | C=CC(=O)Nc1cccc(Nc2nc(Nc3cnc(N4CCN(C(C)=O)CC4)nc3OC)ncc2C(F)(F)F)c1 [ES-160] |
| 224 |  | 15.8 |  | 2.42 | 5.26 | C=CC(=O)Nc1cccc(Nc2nc(Nc3ccc(N4CCNCC4)nc3OC)ncc2C(F)(F)F)c1 [ES-069] |
| 542 | 18000 | 33.3 | 37.6 | 77.9 | 13.5 | C=CC(=O)Nc1cccc(Nc2nc(Nc3ccc(N4CCN(S(=O)(=O)C(C)C)CC4)nc3OC)ncc2C(F)(F)F)c1 [ES-145] |
| 21.1 | 2290 | 2.69 | 4.12 | 3.58 | 2.27 | C=CC(=O)Nc1cccc(Nc2nc(Nc3ccc(N4CCN(C(=O)CC)CC4)nc3OC)ncc2C(F)(F)F)c1 [ES-137] |
| 649 | 3130 | 2.23 | 1.86 | 49.9 | 37 | C=CC(=O)Nc1cccc(Nc2nc(Nc3cnc(N4CCN(C(=O)OC(C)(C)C)CC4)nc3OC)ncc2C(F)(F)F)c1 [ES-159] |
| 74.5 | 1390 | 12.6 | 6.05 | 18.2 | 5.72 | C=CC(=O)Nc1cccc(Nc2nc(Nc3cnc(N4CCN(C(=O)N(C)C)CC4)nc3OC)ncc2C(F)(F)F)c1 [ES-164] |
| 150 | 2690 | 9.2 | 4.62 | 8.94 | 4.62 | C=CC(=O)Nc1cccc(Nc2nc(Nc3ccc(NC4CCN(C(C)=O)C4)nc3OC)ncc2C(F)(F)F)c1 (stereo not shown) [ES-123] |
| 230 | 2900 | 4.14 | 3.78 | 4.42 | 2.62 | C=CC(=O)Nc1cccc(Nc2nc(Nc3ccc(N4CCN(S(=O)(=O)N(C)C)CC4)nc3OC)ncc2C(F)(F)F)c1 [ES-132] |
| 80 | 826 | 1.01 | 2.96 | 4.4 | 1.22 | C=CC(=O)Nc1cccc(Nc2nc(Nc3ccc(N4CCN(S(C)(=O)=O)CC4)nc3OC)ncc2C(F)(F)F)c1 [ES-142] |
| 110 | 3250 | 0.329 | 8.87 | 1.5 | 4.43 | C=CC(=O)Nc1cccc(Nc2nc(Nc3ccc(N4CCN(C(=O)C(F)(F)F)CC4)nc3OC)ncc2C(F)(F)F)c1 [ES-135] |
| 111 |  | 7.22 |  | 4.95 | 1.75 | C=CC(=O)Nc1cccc(Nc2nc(Nc3ccc(N4CCN(C(=O)OC(C)(C)C)CC4)nc3OC)ncc2C(F)(F)F)c1 [ES-070] |
| 132 | 3130 | 4.78 | 6.07 | 4.47 | 6.74 | C=CC(=O)Nc1cccc(Nc2nc(Nc3ccc(N(C)C4CCN(C(=O)N(C)C)C4)nc3OC)ncc2C(F)(F)F)c1 (stereo not shown) [ES-151] |
| 55.7 | 1250 | 3.73 | 2.21 | 6.26 | 2.09 | C=CC(=O)Nc1cccc(Nc2nc(Nc3ccc(NC4CCN(CCF)C4)nc3OC)ncc2C(F)(F)F)c1 (stereo not shown) [ES-124] |
| 49.1 | 3100 | 5.23 | 5.07 | 6.71 | 3.92 | C=CC(=O)Nc1cccc(Nc2nc(Nc3ccc(N(C)C4CCN(C(=O)C5COC5)C4)nc3OC)ncc2C(F)(F)F)c1 (stereo not shown) [ES-149] |
| 168 | 5110 | 18.9 | 5.49 | 19 | 7.5 | C=CC(=O)Nc1cccc(Nc2nc(Nc3cnc(N4CCN(C(=O)C5COC5)CC4)nc3OC)ncc2C(F)(F)F)c1 [ES-163] |
| 175 | 1590 | 2.05 | 3.59 | 1.04 | 0.768 | C=CC(=O)Nc1cccc(Nc2nc(Nc3ccc(N4CCN(C(=O)OCC)CC4)nc3OC)ncc2C(F)(F)F)c1 [ES-136] |
| 254 | 5890 | 3.07 | 4.08 | 3.79 | 2.91 | C=CC(=O)Nc1cccc(Nc2nc(Nc3ccc(N4CCN(C(=O)CC(C)(C)C)CC4)nc3OC)ncc2C(F)(F)F)c1 [ES-138] |
| 270 | 2280 | 5.87 | 3.16 | 6.46 | 2.08 | C=CC(=O)Nc1cccc(Nc2nc(Nc3ccc(N4CCN(C(=O)COC(C)=O)CC4)nc3OC)ncc2C(F)(F)F)c1 [ES-140] |
| 1640 | 2710 | 3.86 | 3.6 | 9.47 | 4.54 | C=CC(=O)Nc1cccc(Nc2nc(Nc3ccc(N4CCN(C(=O)C(C)(C)C)CC4)nc3OC)ncc2C(F)(F)F)c1 [ES-139] |
| 69.1 | 1640 | 0.399 | 2.95 | 3.36 | 1.72 | C=CC(=O)Nc1cccc(Nc2nc(Nc3ccc(N4CCN(S(=O)(=O)C5CC5)CC4)nc3OC)ncc2C(F)(F)F)c1 [ES-134] |
| 149 | 3960 | 16.8 | 5.56 | 12.2 | 5.04 | C=CC(=O)Nc1cccc(Nc2nc(Nc3ccc(NC4CCN(C(=O)C5COC5)C4)nc3OC)ncc2C(F)(F)F)c1 (stereo not shown) [ES-125] |
| 133 | 399 | 0.101 | 1.46 | 1.51 | 2.18 | C=CC(=O)Nc1cccc(Nc2nc(Nc3ccc(N4CCN(S(=O)(=O)CCC)CC4)nc3OC)ncc2C(F)(F)F)c1 [ES-144] |
